This note sets out measurements from US20080206198A1, “Compounds and methods for pharmico-gene therapy of epithelial sodium channel associated disorders” (priority 2003, published 2008).

Peptide text beside a SMILES is read from it. * marks the point of attachment. Cbz = O=C(OCc1ccccc1)*

In data set [1] the test system is primary human fibroblasts. In kind it is cell-based. Particulars: confluent primary human fibroblasts treated prior to rAAV infection; FACS at 96 hours post-infection. The method, then: Initial studies were performed in confluent primary human fibroblasts since dose titrations and toxicity could be quickly assessed. Selected agents were used to treat fibroblast monolayers prior to rAAV infection. rAAV transduction was assessed at 96 hours post-infection by FACS analysis, and the percentage of dead cells was simultaneously assessed by incorporation of propidium iodide.
These tripeptides are structurally related to chloroquine but have different lipid solubility and specificity for cysteine proteases (Seglen, 1983). These molecules decrease endosomal degradation of molecules by a mechanism different than altering pH.

The subject of another data set is mice. The experiment in a line: Toxicity of proteasome inhibitors in mice (intra-tracheal and IV). As to conditions: 10, 100 and 1000 fold higher doses than used in polarized airway cells. The format is in vivo, mouse. The method, then: Long-term enhancement of rAAV transduction by proteasome inhibitor in vivo. To evaluate the potential utility of proteasome inhibitors for in vivo gene therapy, both the toxicity and efficacy of these agents for in vivo rAAV mediated gene transfer in the mouse lung was tested. To assess the toxicity of these proteasome inhibitors in mice, 10, 100, and 1000 fold higher effective doses of LLnL or Z-LLL were administered than used to induce gene transfer in polarized airway cells, using both intra-tracheal and systemic (IV) delivery. No toxicity was indicated by histologic evaluation of the lung and liver or was evidenced by the death of animals. To investigate whether these proteasome inhibitors could improve rAAV transduction in vivo, AV.LacZ (5×10^10 particles) was delivered either alone or in the presence of 400 μM Z-LLL by intranasal administration. Mouse lungs were harvested at 3, 10 and 150 days post-infection to evaluate short and long term effects. […] Targeted transgene expression was predominantly confined to the conducting airways, rather than in the parenchyma. Alveolar cells were rarely transduced. […] The range of transgene expression in distal and proximal airways was 0 to 4% and 5 to 18%, respectively.

In a further data set the test system is Huh-7 cells. The experiment in a line: AAV2 FLAG-Luc transduction of Huh-7 cells. The format is cell-based. As to conditions: 20 to 80 μM. The text has this:
A. To screen for agents that enhance rAAV transduction, any number of cells can be used. A range of concentrations of the agent to be tested can be determined based on, for instance desirable profiles of the agent, desirable toxicity profiles of the agent and/or concentration of the agents employed in vivo. The usefulness of the cell type chosen for the screen can be confirmed by testing compounds, e.g., proteasome inhibitors such as LLnL and ZLL which are known to increase rAAV transduction. For example, a AAV2 FLAG-Luc vector was employed to transduce HeLa, ferret fibroblasts, IB3 and Huh (liver) cells in the presence or absence of the proteasome inhibitor MG132. MG132 was confirmed to enhance AAV transduction in all cell types tested: HeLa cell transduction was enhanced about 500-fold at 80 μM, and 200-fold at 40 μM, MG132; ferret fibroblast cell transduction was enhanced about 200-fold at 20 μM, and 17-fold at 4 μM, MG132; IB3-1 cell transduction was enhanced about 30 to 70-fold at 20 to 80 μM MG132; and Huh-7 cell transduction was enhanced about 15-fold at 20 to 80 μM MG132. There was no difference in rAAV transduction efficiency in HeLa cells when either DMSO or ETOH was used as a vehicle for MG132. B. HeLa cells were selected to screen for additional agents that enhance rAAV transduction, although any cell strain or line; or primary cells, may be employed. […]

The subject of the next data set is IB3 cells. Put plainly: AV2Luc and AV2/5Luc transduction of IB3 cells. The format is cell-based, human. Particulars: 24 hours post-infection. The method, then:
LLnL and Z-LLL are two tripeptidyl aldehydes shown to inhibit calpains, cathepsins, cysteine proteases as well as the chymotrypsin-like protease activity of proteasomes (Wagner et al., 2002; Donkor, 2000; Sasaki et al., 1990). […] Both classes of proteasome inhibitors bind tightly to the proteasome complex. Dose response curves for these two proteasome-modulating agents were evaluated on IB3, A549, Hela, and primary fibroblasts. The responses were consistent for a number of cell lines and for three different promoters driving luciferase expression. For one set, CMV-driven luciferase constructs with an AAV2-based genome were employed that were packaged into AV2 or AV5 capsids. Cells were infected at various doses of AV2Luc and AV2/5Luc (MOIs 100 to 1000 particles/cell). At the time of infection, cells were treated with various concentrations of LLnL or Doxorubicin and gene expression was assayed at 24 hours post-infection. The effect of proteasome inhibitors on nuclear uptake of virus was evaluated using a previously-described protocol for fractionating viral DNA in the cytoplasm and nucleus (Xiao et al., 2002). Viral DNA content in the cytoplasmic and nuclear fractions was then evaluated by slot blot hybridization against a Luciferase DNA probe.

Data set [2] relates to primary fetal fibroblasts. The experiment in a line: rAAV transduction of primary fetal fibroblasts. As to conditions: data not shown. In kind it is cell-based. The method, then: Hela, A549, IB3, and primary fetal fibroblasts were evaluated for AV2Luc and AV2/5Luc transduction in the presence of LLnL, Dox, or LLnL+Dox at various concentrations. The data shown is from Hela and A549 cells at the most optimal dose combination that induces rAV2Luc transduction to a greater extent than each compound alone.

Data set [3] relates to polarized bronchial epithelia cells. The experiment in a line: S^35-labeled rAAV binding/entry and in situ localization in polarized bronchial epithelia. In kind it is cell-based, human. The method, then:
Viral binding/entry assays and in situ localization of viral particles. To assess the binding of rAAV to polarized bronchial epithelia cells, S^35-labeled AV.GFP3ori was applied to either the apical or basal surface (MOI=50,000 particles/cell), followed by incubation at 4° C. for 60 minutes. Combined binding/entry of rAAV into differentiated airway epithelia was measured under the same conditions, except that the cultures were incubated at 37° C. for an additional 2-24 hours before they were harvested. These combined viral binding/entry assays were performed under identical infection conditions to those used for functional studies of rAAV transduction with transgene expression as an endpoint. After washing three times in PBS, cells were lysed in situ by the addition of 5 ml of liquid scintillation cocktail at room temperature for 5 minutes, and the radioactivity was quantitated in a scintillation counter.
To analyze the subcellular localization of the rAAV particles within polarized human bronchial epithelial cells, infection was performed by applying S^35 labeled virus (MOI=50,000 particles/cell) to either the mucosal or serosal surface. At 2 hours post-infection, transwells were washed with medium three times and fixed in 4% paraformaldehyde overnight prior to cryoprotection and embedding for frozen sectioning. 10 μm frozen sections were overlaid with photoemulsion and developed for 5 weeks according to a previously published protocol (Duan et al., 1998).

On to `CC(C)C[C@@H](C=O)NC(=O)[C@H](CC(C)C)NC(=O)[C@H](CC(C)C)NC(=O)OCc1ccccc1` [Z-LLL, N-carbobenzoxyl-L-leucinyl-L-leucinyl-L-leucinal] (Cbz-Leu-Leu-Leu-aldehyde), for which the rAAV transduction result in data set [1] is “significantly increased rAAV transduction”. For the same compound, in the data set with mice, the “toxicity (histology of lung and liver, death of animals)” value was “No toxicity”. Also, the “enhancement of Huh-7 cell transduction” value in the data set on Huh-7 cells is on record as “about 15 fold”.
As to `COc1cccc2c1C(=O)c1c(O)c3c(c(O)c1C2=O)C[C@@](O)(C(=O)CO)C[C@@H]3O[C@H]1C[C@H](N)[C@H](O)[C@H](C)O1` [doxorubicin], in the data set on IB3 cells, the “induction of rAAV transduction” value is on record as 200 fold. Further, in data set [2], the induction of transduction result is “most significantly enhances transduction”.
In the case of “N-acetyl-L-leucinyl-L-leucinal-L-norleucinal [LLnL]”, the rAAV transduction entry in data set [1] is on record as “significantly increased rAAV transduction”. Also, the rAAV binding result in data set [3] (4° C.) is listed as “no significant effect”. The “uptake of S^35 labeled rAAV” value in data set [3] (2 hour infection period at 37° C.) is on record as “not altered”. The “intracellular distribution of radiolabeled rAAV particles” value in data set [3] (2 hours post-infection, photoemulsion overlay) is “significant shift to nuclear associated grains”. Further, the intracellular radioactivity entry in data set [3] (24 hours post-infection) is on record as “very significant decrease”. Moreover, in the data set on mice, the “toxicity (histology of lung and liver, death of animals)” value is on record as “No toxicity”. Besides, the “induction of rAAV transduction” value in the data set with IB3 cells is listed as more than 200 fold. Moreover, the induction of transduction in data set [2] came to 10 fold.
